Assay results reported in patent US12577231B2, “Androgen receptor PROTACS” (GlaxoSmithKline Intellectual Property Development Limited, priority 2023, dated 2026).

Target: T1, Androgen Receptor, LNCaP (AR T878A) (Homo sapiens, UniProt P10275, T878A)
T1 construct: endogenous in cells; host or cells: LNCaP
T1 sequence (P10275 1-920 T878A): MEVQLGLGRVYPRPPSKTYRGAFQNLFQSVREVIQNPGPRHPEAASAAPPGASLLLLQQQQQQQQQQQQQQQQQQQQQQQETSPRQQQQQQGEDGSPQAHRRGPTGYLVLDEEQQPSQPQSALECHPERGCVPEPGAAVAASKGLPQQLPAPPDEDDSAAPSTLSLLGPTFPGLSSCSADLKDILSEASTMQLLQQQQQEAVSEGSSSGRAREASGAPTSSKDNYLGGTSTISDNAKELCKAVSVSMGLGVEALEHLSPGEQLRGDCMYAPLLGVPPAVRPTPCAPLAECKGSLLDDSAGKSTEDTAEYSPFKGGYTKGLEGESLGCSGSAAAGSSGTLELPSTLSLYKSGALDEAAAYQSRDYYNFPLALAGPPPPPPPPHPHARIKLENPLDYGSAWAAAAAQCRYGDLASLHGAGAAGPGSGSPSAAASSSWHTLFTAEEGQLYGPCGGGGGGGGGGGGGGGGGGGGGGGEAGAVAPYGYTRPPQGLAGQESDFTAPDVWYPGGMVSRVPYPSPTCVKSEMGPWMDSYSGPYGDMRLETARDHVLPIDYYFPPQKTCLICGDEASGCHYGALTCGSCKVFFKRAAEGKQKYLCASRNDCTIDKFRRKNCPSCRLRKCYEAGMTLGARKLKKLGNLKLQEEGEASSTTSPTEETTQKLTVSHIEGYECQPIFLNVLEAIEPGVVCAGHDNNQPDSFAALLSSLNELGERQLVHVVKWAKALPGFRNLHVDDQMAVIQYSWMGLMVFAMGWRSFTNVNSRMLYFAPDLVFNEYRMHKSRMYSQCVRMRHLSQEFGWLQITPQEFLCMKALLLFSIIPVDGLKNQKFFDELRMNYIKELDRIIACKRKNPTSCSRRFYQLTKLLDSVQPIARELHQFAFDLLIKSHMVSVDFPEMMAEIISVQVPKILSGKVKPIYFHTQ
Experiment: Androgen Receptor Degradation-Imaging Assay, LNCaP cell line
Assay type: cell-based
Conditions: 16 hours treatment, maximum observed degradation
Procedure: Degradation of Androgen Receptor (AR) protein in human prostate cancer cell lines (MDA-PCa-2b (AR T878A/L702H), LNCaP (AR T878A), VCaP (AR wild type and amplified) 22RV1 (AR H875Y) and PC3 (AR negative control)) treated with AR PROTACs was quantified using immunofluorescence. Prostate cancer cells were plated (MDA-PCa-2b, and VCaP 16,000 cells/well; LNCaP and 22RV1 32,000 cells/well, and PC3 8,000 cells/well) in an optical bottom 96-well cell culture plate and allowed to attach overnight. The prostate cancer cell lines were treated for 16 hours with a 10-point 3-fold dilution series (dose range=0.02 nM to 333 nM). PC3 is included as an AR negative control and not treated with compound. Cells are fixed and permeabilized with 4% formaldehyde, blocked with 10% goat serum in immunofluorescence (IF) buffer (130 mM NaCl, 7 mM Na2HPO4, 3.5 mM NaH2PO4, 7.7 mM NaN3, 0.1% BSA, 0.2% Triton X, 0.05% Tween 20) prior to overnight incubation with rabbit antibody specific for C terminus of AR (commercially available from RevMaB Biosciences). Following washes with IF buffer, cells were incubated with fluorescent secondary antibody (Goat anti-rabbit Alexa 647; commercially available from Invitrogen) and Hoechst nuclear stain (commercially available from Themo Scientific) prior to quantification of nuclear AR levels via Opera Phenix high-content fluorescent imager using a 40× water objective. Image analysis was performed with Harmony software.
The averaged nuclear Alexa 647 median fluorescence intensity (MFI) of PC3 cells is subtracted from the nuclear Alexa 647 MFI of PROTAC treated and DMSO control treated cells. % AR remaining is calculated for PROTAC treatments as a percent of the DMSO control (MFI PROTAC treated/MFI DMSO control treated)*100). DC50 and the Dmax values, were obtained from these normalised values fitted with a 4-parameter sigmoidal response curve (Xlfit software). The DC50 is the interpolated concentration of PROTAC corresponding to 50% of the protein being degraded, and the Dmax parameter is the maximum experimentally observed degradation.
In the case of `CC1(C)[C@H](NC(=O)c2ccc(N3CCC(CN4CCC(n5ncc6c(N7CCC(=O)NC7=O)cccc65)CC4)CC3)c(F)c2)C(C)(C)[C@H]1Oc1ccc(C#N)c2ncccc12` [Example 6, N-((1r,3r)-3-((8-Cyanoquinolin-5-yl)oxy)-2,2,4,4-tetramethylcyclobutyl)-4-(4-((4-(4-(2,4-dioxotetrahydropyrimidin-1(2H)-yl)-1H-indazol-1-yl)piperidin-1-yl)methyl)piperidin-1-yl)-3-fluorobenzamide], the Dmax is reported as ≥ 80%. In the case of `COc1cc(O[C@H]2C(C)(C)[C@H](NC(=O)c3ccc(N4CCC(CN5CCC(n6ccc7c(N8CCC(=O)NC8=O)cccc76)CC5)CC4)cc3)C2(C)C)ccc1C#N` [Example 16, N-((1r,3r)-3-(4-Cyano-3-methoxyphenoxy)-2,2,4,4-tetramethylcyclobutyl)-4-(4-((4-(4-(2,4-dioxotetrahydropyrimidin-1(2H)-yl)-1H-indol-1-yl)piperidin-1-yl)methyl)piperidin-1-yl)benzamide], the Dmax is reported as ≥ 80%. In the case of `COc1cc(O[C@H]2C(C)(C)[C@H](NC(=O)c3ccc(N4CCC(CN5CCC(n6ncc7c(N8CCC(=O)NC8=O)cccc76)CC5)CC4)cc3)C2(C)C)ccc1C#N` [Example 15, N-((1r,3r)-3-(4-Cyano-3-methoxyphenoxy)-2,2,4,4-tetramethylcyclobutyl)-4-(4-((4-(4-(2,4-dioxotetrahydropyrimidin-1(2H)-yl)-1H-indazol-1-yl)piperidin-1-yl)methyl)piperidin-1-yl)benzamide], the Dmax is reported as ≥ 80%. With `CC1(C)[C@H](NC(=O)c2ccc(N3CCC(CN4CCC(n5ncc6c(N7CCC(=O)NC7=O)nccc65)CC4)CC3)c(F)c2)C(C)(C)[C@H]1Oc1ccc(C#N)c2ncccc12` [Example 39, N-((1r,3r)-3-((8-Cyanoquinolin-5-yl)oxy)-2,2,4,4-tetramethylcyclobutyl)-4-(4-((4-(4-(2,4-dioxotetrahydropyrimidin-1(2H)-yl)-1H-pyrazolo[4,3-c]pyridin-1-yl)piperidin-1-yl)methyl)piperidin-1-yl)-3-fluorobenzamide] the Dmax was ≥ 80%. In the case of `CC1(C)[C@H](NC(=O)c2ccc(N3CCC(CN4CCC(n5ccc6c(N7CCC(=O)NC7=O)ncnc65)CC4)CC3)c(F)c2)C(C)(C)[C@H]1Oc1ccc(C#N)c2ncccc12` [Example 47, N-((1r,3r)-3-((8-Cyanoquinolin-5-yl)oxy)-2,2,4,4-tetramethylcyclobutyl)-4-(4-((4-(4-(2,4-dioxotetrahydropyrimidin-1(2H)-yl)-7H-pyrrolo[2,3-d]pyrimidin-7-yl)piperidin-1-yl)methyl)piperidin-1-yl)-3-fluorobenzamide], the Dmax is reported as ≥ 80%. In the case of `CC1(C)[C@H](NC(=O)c2ccc(N3CCC(CN4CCC(n5ncc6c(N7CCC(=O)NC7=O)cccc65)CC4)CC3)c(F)c2)C(C)(C)[C@H]1Oc1ccc(C#N)c2c1CCCO2` [Example 8, N-((1r,3r)-3-((8-Cyanochroman-5-yl)oxy)-2,2,4,4-tetramethylcyclobutyl)-4-(4-((4-(4-(2,4-dioxotetrahydropyrimidin-1(2H)-yl)-1H-indazol-1-yl)piperidin-1-yl)methyl)piperidin-1-yl)-3-fluorobenzamide], the Dmax is reported as ≥ 80%. With `CC1(C)[C@H](NC(=O)c2ccc(N3CCC(CN4CCC(n5ccc6c(N7CCC(=O)NC7=O)ncnc65)CC4)CC3)cc2)C(C)(C)[C@H]1Oc1ccc(C#N)c2ncccc12` [Example 28, N-((1r,3r)-3-((8-Cyanoquinolin-5-yl)oxy)-2,2,4,4-tetramethylcyclobutyl)-4-(4-((4-(4-(2,4-dioxotetrahydropyrimidin-1(2H)-yl)-7H-pyrrolo[2,3-d]pyrimidin-7-yl)piperidin-1-yl)methyl)piperidin-1-yl)benzamide] the Dmax was ≥ 80%. With `CC1(C)[C@H](NC(=O)c2ccc(N3CCC(O)(CN4CCC(n5ncc6c(N7CCC(=O)NC7=O)cccc65)CC4)CC3)c(F)c2)C(C)(C)[C@H]1Oc1ccc(C#N)c2ncccc12` [Example 48, N-((1r,3r)-3-((8-Cyanoquinolin-5-yl)oxy)-2,2,4,4-tetramethylcyclobutyl)-4-(4-((4-(4-(2,4-dioxotetrahydropyrimidin-1(2H)-yl)-1H-indazol-1-yl)piperidin-1-yl)methyl)-4-hydroxypiperidin-1-yl)-3-fluorobenzamide] the Dmax was ≥ 80%. In the case of `CC1(C)[C@H](NC(=O)c2ccc(N3CCC(CN4CCC(n5ccc6c(N7CCC(=O)NC7=O)cc(F)cc65)CC4)CC3)c(F)c2)C(C)(C)[C@H]1Oc1ccc(C#N)c2ncccc12` [Example 32, N-((1r,3r)-3-((8-Cyanoquinolin-5-yl)oxy)-2,2,4,4-tetramethylcyclobutyl)-4-(4-((4-(4-(2,4-dioxotetrahydropyrimidin-1(2H)-yl)-6-fluoro-1H-indol-1-yl)piperidin-1-yl)methyl)piperidin-1-yl)-3-fluorobenzamide], the Dmax is reported as ≥ 80%. In the case of `CC1(C)[C@H](NC(=O)c2cc(F)c(N3CCC(CN4CCC(n5ncc6c(N7CCC(=O)NC7=O)cccc65)CC4)CC3)c(F)c2)C(C)(C)[C@H]1Oc1ccc(C#N)c2ncccc12` [Example 30, N-((1r,3r)-3-((8-Cyanoquinolin-5-yl)oxy)-2,2,4,4-tetramethylcyclobutyl)-4-(4-((4-(4-(2,4-dioxotetrahydropyrimidin-1(2H)-yl)-1H-indazol-1-yl)piperidin-1-yl)methyl)piperidin-1-yl)-3,5-difluorobenzamide], the Dmax is reported as ≥ 80%. In the case of `COc1cc(O[C@H]2C(C)(C)[C@H](NC(=O)c3ccc(N4CCC(CN5CCC(n6ncc7c(N8CCC(=O)NC8=O)nccc76)CC5)CC4)c(F)c3)C2(C)C)ccc1C#N` [Example 20, N-((1r,3r)-3-(4-Cyano-3-methoxyphenoxy)-2,2,4,4-tetramethylcyclobutyl)-4-(4-((4-(4-(2,4-dioxotetrahydropyrimidin-1(2H)-yl)-1H-pyrazolo[4,3-c]pyridin-1-yl)piperidin-1-yl)methyl)piperidin-1-yl)-3-fluorobenzamide], the Dmax is reported as ≥ 80%.

System: not given
Experiment: not given
Conditions: male, Wistar Han, rat, in vivo, po, 30 mg/kg
With `COc1cc(O[C@H]2C(C)(C)[C@H](NC(=O)c3ccc(N4CCC(CN5CCC(n6ncc7c(N8CCC(=O)NC8=O)nccc76)CC5)CC4)c(F)c3)C2(C)C)ccc1C#N` [Example 20, N-((1r,3r)-3-(4-Cyano-3-methoxyphenoxy)-2,2,4,4-tetramethylcyclobutyl)-4-(4-((4-(4-(2,4-dioxotetrahydropyrimidin-1(2H)-yl)-1H-pyrazolo[4,3-c]pyridin-1-yl)piperidin-1-yl)methyl)piperidin-1-yl)-3-fluorobenzamide] the “Dose Normalised AUC0-t” value was 240 ± 38 (ng · h/mL)/(mg/kg.

Same assay, conditions: male, Wistar Han, rat, in vivo, po, 35 mg/kg
In the case of `COc1cc(O[C@H]2C(C)(C)[C@H](NC(=O)c3ccc(N4CCC(CN5CCC(n6ncc7c(N8CCC(=O)NC8=O)nccc76)CC5)CC4)c(F)c3)C2(C)C)ccc1C#N` [Example 20, N-((1r,3r)-3-(4-Cyano-3-methoxyphenoxy)-2,2,4,4-tetramethylcyclobutyl)-4-(4-((4-(4-(2,4-dioxotetrahydropyrimidin-1(2H)-yl)-1H-pyrazolo[4,3-c]pyridin-1-yl)piperidin-1-yl)methyl)piperidin-1-yl)-3-fluorobenzamide], the “Dose Normalised AUC0-t” value is reported as 744 ± 66 (ng · h/mL)/(mg/kg.
